Where two headings read alike, the source gives them in different places. Marks after values point to notes of the source that are not given here.
What was measured:
[1] = test system: MES-induced seizures; details: Rat PO; from Antiepileptic Drugs, 5th ed., Levy et al., 2002; cited from earlier work
[2] = test system: Metrazol-induced clonic seizures; details: Rat PO; from Antiepileptic Drugs, 5th ed., Levy et al., 2002; cited from earlier work
[3] = Toxicity (TOX), rotorod procedure, mice; format: in vivo; details: mouse, in vivo; IP route in mice (footnote of Table 10); read-out: TD50
Method: (§1) The benzodiazepine derivative compounds selective for GABAa receptor subunits were tested for the ability to suppress seizures in several standard rat and mouse models of epilepsy. […] The standard models incorporated into anticonvulsant screening include the maximal electroshock test (MES), the subcutaneous Metrazol test (scMet), and evaluations of toxicity (TOX). The data for each condition is presented as a ratio of either the number of animals protected or toxic (loss of locomotor activity) over the number of animals tested at a given time point and dose.
(§2) To assess a compound's undesirable side effects (toxicity), animals are monitored for overt signs of impaired neurological or muscular function. […] When a mouse is placed on a rod that rotates at a speed of 6 rpm, the animal can maintain its equilibrium for long periods of time. The animal is considered toxic if it falls off this rotating rod three times during a 1-min period. In rats, minimal motor deficit is indicated by ataxia, which is manifested by an abnormal, uncoordinated gait. Rats used for evaluating toxicity are examined before the test drug is administered, since individual animals may have peculiarities in gait, equilibrium, placing response, etc., which might be attributed erroneously to the test substance.

[4] = test system: 6 Hz psychomotor seizure; test: Minimal clonic seizure (6 Hz) test; format: in vivo; details: Mice IP; for ED50: Mus musculus, ip
Excerpt: Like the maximal electroshock (MES) test, the minimal clonic seizure (6 Hz) test is used to assess a compound's efficacy against electrically-induced seizures but uses a lower frequency (6 Hz) and longer duration of stimulation (3 s). Test compounds are pre-administered to mice via ip injection. […] Untreated mice will display seizures characterized by a minimal clonic phase followed by stereotyped, automatistic behaviors described originally as being similar to the aura of human subjects with partial seizures. Animals not displaying this behavior are considered protected (Table 10).

[5] = test system: Metrazol-induced clonic seizures; details: Mice IP; from Antiepileptic Drugs, 5th ed., Levy et al., 2002; cited from earlier work
[6] = test system: MES-induced seizures; details: Mice IP; from Antiepileptic Drugs, 5th ed., Levy et al., 2002; cited from earlier work
[7] = test system: minimal muscular or neurological impairment; details: Mice IP; from Antiepileptic Drugs, 5th ed., Levy et al., 2002; cited from earlier work
[8] = test system: minimal motor deficit (ataxia, abnormal gait); details: Rat PO; from Antiepileptic Drugs, 5th ed., Levy et al., 2002; cited from earlier work
[9] = target: GABAA/α2 (Homo sapiens, UniProt P18507+P47869); details: Huang et al., J. Med. Chem. 2000, 43, 71-95; cited from earlier work
[10] = target: GABAA/α5 receptors (Homo sapiens, UniProt P18507+P31644); details: Huang et al., J. Med. Chem. 2000, 43, 71-95; cited from earlier work
[11] = target: GABAA/α3 (Homo sapiens, UniProt P18507+P34903); details: Huang et al., J. Med. Chem. 2000, 43, 71-95; cited from earlier work
[12] = target: GABAA/α1 receptors (Homo sapiens, UniProt P14867+P18507); details: Huang et al., J. Med. Chem. 2000, 43, 71-95; cited from earlier work
[13] = target: T1, GABAA/α1 (α1β3γ2 GABAA receptors) (Homo sapiens, UniProt P14867+P18507); test: Competitive binding assay, [3H]flunitrazepam; details: αxβ3γ2, [3H]flunitrazepam competition; read-out: Binding Affinity at GABAA/α1
T1 construct: expressed in transfected cells
Method: (§3) The GABAA subunit selectivity of several compounds prepared as described above were determined using competitive binding assays. […] Membranes were harvested with a Brandel cell harvester followed by three ice-cold washes onto polyethyleneimine-pretreated (0.3%) Whatman GF/C filters. Filters were dried overnight and then soaked in Ecoscint, a liquid scintillation cocktail (National Diagnostics; Atlanta, Ga.). Bound radioactivity was quantified by liquid scintillation counting. Membrane protein concentrations were determined using an assay kit from Bio-Rad (Hercules, Calif.) with bovine serum albumin as the standard.

[14] = target: T2, GABAA/α4 (α4β3γ2 GABAA receptors) (Homo sapiens, UniProt P18507+P48169); test: Competitive binding assay, [3H]flunitrazepam
T2 construct: expressed in transfected cells
Method: as §3

[15] = target: T3, GABAA/α3 (α3β3γ2 GABAA receptors) (Homo sapiens, UniProt P18507+P34903); test: Competitive binding assay, [3H]flunitrazepam; details: Binding Affinity at GABAA/α3, αxβ3γ2, [3H]flunitrazepam competition
T3 construct: expressed in transfected cells
Method: as §3

[16] = target: T4, GABAA/α5 (α5β3γ2 GABAA receptors) (Homo sapiens, UniProt P18507+P31644); test: Competitive binding assay, [3H]flunitrazepam; details: Binding Affinity at GABAA/α5, αxβ3γ2, [3H]flunitrazepam competition
T4 construct: expressed in transfected cells
Method: as §3

[17] = target: T5, GABAA/α6 (α6β3γ2 GABAA receptors) (Homo sapiens, UniProt P18507+Q16445); test: Competitive binding assay, [3H]flunitrazepam
T5 construct: expressed in transfected cells
Method: as §3

[18] = target: T6, GABAA/α2 (α2β3γ2 GABAA receptors) (Homo sapiens, UniProt P18507+P47869); test: Competitive binding assay, [3H]flunitrazepam; details: αxβ3γ2, [3H]flunitrazepam competition; read-out: Binding Affinity at GABAA/α2
T6 construct: expressed in transfected cells
Method: as §3

[19] = test system: MES-induced seizures; test: Maximal electroshock test (MES), mice; format: in vivo
Method: as §1
(§4) The MES is a model for generalized tonic-clonic seizures and provides an indication of a compound's ability to prevent seizure spread when all neuronal circuits in the brain are maximally active. These seizures are highly reproducible and are electrophysiologically consistent with human seizures. For all tests based on MES convulsions, 60 Hz of alternating current (50 mA in mice, 150 in rats) is delivered for by corneal electrodes which have been primed with an electrolyte solution containing an anesthetic agent (0.5% tetracaine HCL). For Test 1, mice are tested at various intervals following doses of 30, 100 and 300 mg/kg of test compound given by ip injection of a volume of 0.01 mL/g. In Test 2, rats are tested after a dose of 30 mg/kg (po) in a volume of 0.04 mL/g. Test 8 uses varying doses administered via i.p. injection, again in a volume of 0.04 ml/g. […] In Antiepileptic Drugs, Levy, R. H. M., Meldrum, B. S., Eds.; Raven Press: New York, pp 99-110, 1995b.).

[20] = test system: minimal muscular or neurological impairment; test: Toxicity (TOX), rotorod procedure, mice; format: in vivo
Method: as §1, §2

[21] = test system: Metrazol-induced clonic seizures; test: Subcutaneous Metrazol test (scMet), rats; format: in vivo
Method: as §1
(§5) Subcutaneous injection of the convulsant Metrazol produces clonic seizures in laboratory animals. […] Animals are pretreated with various doses of the test compound (in a similar manner to the MES test, although a dose of 50 mg/kg (po) is the standard for Test 2 scMet). At the previously determined TPE of the test compound, the dose of Metrazol which will induce convulsions in 97% of animals (CD97: 85 mg/kg mice) is injected into a loose fold of skin in the midline of the neck. […] An episode of clonic spasms, approximately 3-5 seconds, of the fore and/or hindlimbs, jaws, or vibrissae is taken as the endpoint.

[22] = test system: kindled motor seizure; test: Hippocampus kindling screen; format: in vivo; details: Rats IP, 3 mg/kg after 4 h
Excerpt: The hippocampus kindling screen is a useful adjunct to the traditional MES and scMet tests for identification of a substance potential utility for treating complex partial seizures. […] No toxic effects were observed as indicated by the lack of motor impairment on the rats tested.

[23] = test system: MES-induced seizures; test: Maximal electroshock test (MES), rats; format: in vivo; details: Rat PO; for MES, animals protected/tested: 30 mg/kg
Method: as §1, §4

[24] = test system: Metrazol-induced clonic seizures; test: Subcutaneous Metrazol test (scMet), mice; format: in vivo
Method: as §1, §5

[25] = Toxicity (TOX), minimal motor deficit, rats; format: in vivo; details: in vivo; Rat IP
Method: as §1, §2

[26] = test system: minimal motor deficit (ataxia, abnormal gait); test: Toxicity (TOX), minimal motor deficit, rats; format: in vivo; details: Rat PO; for Tox, animals toxic/tested: 50 mg/kg
Method: as §1, §2

[27] = 32 mA, read-out: ED50 32 mA (6 Hz test)
[28] = Mice, 50 mg/kg PO (Mice IP), 0.5 hr
[29] = Mice, 50 mg/kg PO (Mice IP), 4.0 hr

SMILES: NC(=O)N1c2ccccc2C=Cc2ccccc21 [Carbamazepine]
- ED50 MES [1]: 5.35 mg/kg
- ED50 scMet [2]: >250 mg/kg
- TD50 [3]: 41 mg/kg
- ED50 [4, 27]: > 40 mg/kg
- ED50 scMet [5]: >50 mg/kg
- ED50 MES [6]: 7.81 mg/kg

SMILES: O=C1CN=C(c2ccccc2Cl)c2cc([N+](=O)[O-])ccc2N1 [Clonazepan]
- ED50 MES [1]: 7.86 mg/kg
- TD50 TOX [7]: 0.26 mg/kg
- ED50 scMet [2]: 0.61 mg/kg
- TD50 TOX [8]: 2.38 mg/kg
- ED50 32 mA (6 Hz test) ([4]; 32 mA): 0.04 mg/kg
- ED50 scMet [5]: 0.02 mg/kg
- ED50 MES [6]: 25.6 mg/kg

SMILES: O=C1NC(=O)C(c2ccccc2)(c2ccccc2)N1 [Phenytoin]
- ED50 MES [1]: 28.1 mg/kg
- ED50 scMet [2]: >500 mg/kg
- TD50 TOX [8]: >1000 mg/kg
- TD50 [3]: 51 mg/kg
- ED50 [4, 27]: > 40 mg/kg
- ED50 scMet [5]: >50 mg/kg
- ED50 MES [6]: 5.64 mg/kg

SMILES: C#Cc1ccc2c(c1)C(c1ccccc1)=NCC(=O)N2C [QH-II-066, 1-Methyl-7-acetyleno-5-phenyl-1,3-dihydro-benzo[e]-1,4-diazepin-2-one]
- Ki [9]: < 50 nM
- Ki [10]: < 10 nM
- Ki [11]: < 50 nM
- Ki [12]: > 70 nM
- Ki [13]: 76.3 nM
- Ki [14]: > 1000 nM
- Ki [15]: 47.4 nM
- Ki [16]: 6.8 nM
- Ki [17]: > 1000 nM
- Ki [18]: 42.1 nM

SMILES: C#Cc1ccc2c(c1)C(c1ccccc1Cl)=NCc1nnc(C)n1-2 [XLi-JY-DMH (23), 8-Acetyleno-5-(2′-chlorophenyl)-1-methyl-4H-s-triazolo-[4,3-a]-1,4-benzodiazepine]
- MES, animals protected/tested ([19]; Mice IP, 100 mg/kg, 0.5 hr): 3/3
- MES, animals protected/tested ([19]; Mice IP, 100 mg/kg, 4.0 hr): 3/3
- MES, animals protected/tested [19, 28]: 0/4
- MES, animals protected/tested [19, 29]: 0/4
- ED50 ([19]; Mus musculus, Mice IP): > 6 mg/kg
- TOX (Rotorod Test), animals toxic/tested ([20]; Mice IP, 100 mg/kg, 0.5 hr): 6/8
- TOX (Rotorod Test), animals toxic/tested ([20]; Mice IP, 100 mg/kg, 4.0 hr): 2/4
- TD50 TOX ([20]; Mice IP, rotorod): 2.875 mg/kg
- TOX (Rotorod Test), animals toxic/tested [20, 28]: 0/4
- TOX (Rotorod Test), animals toxic/tested [20, 29]: 0/4
- ED50 ([21]; Rat IP): 4.2 mg/kg
- ED50 ([21]; Rat PO): 1.58 mg/kg
- scMet, animals protected/tested ([21]; Rat PO, 15 mg/kg, 0.5 h): 3/4^c
- scMet, animals protected/tested ([21]; Rat PO, 15 mg/kg, 1.0 h): 2/4^c
- scMet, animals protected/tested ([21]; Rat PO, 15 mg/kg, 2.0 h): 4/4^c
- scMet, animals protected/tested ([21]; Rat PO, 15 mg/kg, 4.0 h): 2/4^c
- scMet, animals protected/tested ([21]; Rat PO, 15 mg/kg, […]): 3/4^c
- scMet, animals protected/tested ([21]; Rat PO, 50 mg/kg, 0.5 h): 4/4
- scMet, animals protected/tested ([21]; Rat PO, 50 mg/kg, 1.0 h): 4/4
- scMet, animals protected/tested ([21]; Rat PO, 50 mg/kg, 2.0 h): 4/4
- scMet, animals protected/tested ([21]; Rat PO, 50 mg/kg, 4.0 h): 3/4
- scMet, animals protected/tested ([21]; Rat PO, 50 mg/kg, […]): 4/4
- ED50 [4, 27]: 0.17 mg/kg
- ED50 ([4]; 44 mA, read-out: ED50 44 mA (6 Hz test)): 0.4 mg/kg
- Tox, animals toxic/tested [22]: 0/2^c
- Afterdischarge Duration, Drug (Low-High) ([22]; pre-drug 29-41): 29- s
- ED50 [23]: > 150 mg/kg
- MES, animals protected/tested ([23]; 0.5 h): 0/4
- MES, animals protected/tested ([23]; 1.0 h): 0/4
- MES, animals protected/tested ([23]; 2.0 h): 0/4
- MES, animals protected/tested ([23]; 4.0 h): 0/4
- MES, animals protected/tested ([23]; […]): 0/4
- mice protected against scMet induced seizures ([24]; Mice IP, 100 mg/kg, 0.5 hr): 100%
- scMet, animals protected/tested ([24]; Mice IP, 100 mg/kg, 0.5 hr): 1/1
- scMet, animals protected/tested ([24]; Mice IP, 100 mg/kg, 4.0 hr): 1/1
- scMet, animals protected/tested [24, 28]: 3/4
- scMet, animals protected/tested [24, 29]: 2/4
- ED50 ([24]; Mus musculus, Mice IP): 1.03 mg/kg
- TD50 [25]: 2.08 mg/kg
- Tox, animals toxic/tested ([26]; 0.5 h): 0/4
- Tox, animals toxic/tested ([26]; 1.0 h): 0/4
- Tox, animals toxic/tested ([26]; 2.0 h): 0/4
- Tox, animals toxic/tested ([26]; 4.0 h): 0/4
- Tox, animals toxic/tested ([26]; […]): 0/4
- TD50 TOX ([26]; abnormal gait): 166.25 mg/kg
